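The compound was tested at five concentrations on cells cultured in 96-well plates, with a 48-hour exposure period. GI50: concentration for 50% inhibition of growth.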 Active and inactive are the calls of the source. No stated cut-off is given here; in the data, active = GI50 up to about 1.1 µM and inactive = higher. Starred links: 1 amine or outer side, 2 acyl side, 3 side chain; linkers in the order of their positions; H or OH if unused. Non-standard residues stand in square brackets, D forms with d. Residues, ends and D or L forms follow the SMILES beside them. X4 = C[C@H](N[*:1])C(=O)C(C)(C)C(=O)[*:2]; Hmpa(2S,3S) = CC[C@H](C)[C@H](O)C(=O)O; NMeY = CN[C@@H](Cc1ccc(O)cc1)C(=O)O; NMeL = CN[C@@H](CC(C)C)C(=O)O; NMeV = CN[C@H](C(=O)O)C(C)C; βAla = NCCC(=O)O
What was measured:
Experiment in all cases: inhibition of tumour cell growth, NCI panel, 48 h
OVCAR-8 = test system: OVCAR-8
SK-MEL-28 = test system: SK-MEL-28
EKVX = test system: EKVX
NCI-H23 = test system: NCI-H23
SF-539 = test system: SF-539
OVCAR-3 = test system: OVCAR-3
HOP-92 = test system: HOP-92
SNB-75 = test system: SNB-75
HCT-15 = test system: HCT-15
NCI-H522 = test system: NCI-H522
M19-MEL = test system: M19-MEL
U-251 = test system: U-251
DMS-114 = test system: DMS-114
DMS-273 = test system: DMS-273
SNB-19 = test system: SNB-19
MDA-MB-435 = test system: MDA-MB-435
T47D = test system: T47D
BT-549 = test system: BT-549
NCI/ADR-RES = test system: NCI/ADR-RES
MDA-MB-231 = test system: MDA-MB-231

Row | SMILES | GI50 (OVCAR-8) | GI50 (SK-MEL-28) | GI50 (EKVX) | GI50 (NCI-H23) | GI50 (SF-539) | GI50 (OVCAR-3) | GI50 (HOP-92) | GI50 (SNB-75) | GI50 (HCT-15) [µM] | GI50 (NCI-H522) | GI50 (M19-MEL) | GI50 (U-251) | GI50 (DMS-114) | GI50 (DMS-273) | GI50 (SNB-19) | GI50 (MDA-MB-435) | GI50 (T47D) | GI50 (BT-549) | GI50 (NCI/ADR-RES) | GI50 (MDA-MB-231)
1 | O=C1CCC2(c3ccccc3)Nc3cc(Cl)ccc3N12 (centres undefined) | 38.6 µM (inactive) | 36.2 µM (inactive) | 33.3 µM (inactive) | 22.3 µM (inactive) | 41.3 µM (inactive) | 21.8 µM (inactive) | 13.7 µM (inactive) | 16 µM (inactive) | 35.2 | 26.9 µM (inactive) | 30.8 µM (inactive) | 48 µM (inactive) | 21.4 µM (inactive) | – | – | – | – | – | – | –
2 | O=C1C=C/C(=N\c2ccc3c(c2)C(Br)c2ccccc2-3)O1 (centres undefined) | 72.6 µM (inactive) | > 100 µM (inactive) | 52 µM (inactive) | > 100 µM (inactive) | > 100 µM (inactive) | > 100 µM (inactive) | – | > 100 µM (inactive) | > 100 | 25.9 µM (inactive) | > 100 µM (inactive) | > 100 µM (inactive) | 92.7 µM (inactive) | > 10 µM (inactive) | > 100 µM (inactive) | – | – | – | – | –
3 | CN1CCOC(C(NC(=O)c2ccccc2)c2ccccc2)C1=O (centres undefined) | > 100 µM (inactive) | > 100 µM (inactive) | > 100 µM (inactive) | > 100 µM (inactive) | > 100 µM (inactive) | > 100 µM (inactive) | > 100 µM (inactive) | 24.3 µM (inactive) | > 100 | > 100 µM (inactive) | > 100 µM (inactive) | > 100 µM (inactive) | – | > 100 µM (inactive) | > 100 µM (inactive) | – | – | – | – | –
4 | O=C(NC1CCCCCC1)C1C(=O)N(C2CCCCCC2)C(=O)/C1=N\O (centres undefined) | 38.6 µM (inactive) | 30 µM (inactive) | 36.2 µM (inactive) | 26.5 µM (inactive) | 25.2 µM (inactive) | 17.6 µM (inactive) | 20.6 µM (inactive) | 26.6 µM (inactive) | 34.4 | 19.6 µM (inactive) | 28.2 µM (inactive) | 18.6 µM (inactive) | 33 µM (inactive) | – | 35.2 µM (inactive) | – | – | – | – | –
5 | CCOC(=O)C1C(=O)CC(=O)C2CCCCC21 (centres undefined) | > 100 µM (inactive) | > 100 µM (inactive) | > 100 µM (inactive) | > 100 µM (inactive) | > 100 µM (inactive) | > 100 µM (inactive) | > 100 µM (inactive) | > 100 µM (inactive) | > 100 | > 100 µM (inactive) | – | > 100 µM (inactive) | > 100 µM (inactive) | > 100 µM (inactive) | > 100 µM (inactive) | – | – | – | – | –
6 | NCP(=O)(O)OCC(=O)O | > 100 µM (inactive) | > 100 µM (inactive) | > 100 µM (inactive) | > 100 µM (inactive) | > 100 µM (inactive) | > 100 µM (inactive) | > 100 µM (inactive) | > 100 µM (inactive) | > 100 | > 100 µM (inactive) | – | > 100 µM (inactive) | > 100 µM (inactive) | > 100 µM (inactive) | > 100 µM (inactive) | – | – | – | – | –
7 | COc1ccc(/C=C2\CNC/C(=C\c3ccc(OC)cc3)C2=O)cc1 | 16.1 µM (inactive) | 87.9 µM (inactive) | > 100 µM (inactive) | 15.8 µM (inactive) | 13.6 µM (inactive) | 35 µM (inactive) | 56.9 µM (inactive) | 30.4 µM (inactive) | 27.4 | – | > 100 µM (inactive) | 17.6 µM (inactive) | 45.8 µM (inactive) | 23.2 µM (inactive) | 80.2 µM (inactive) | – | – | – | – | –
8 | Brc1ccc2[nH]cc(-c3nc(-c4c[nH]c5ccccc45)cs3)c2c1 | 4.27 µM (inactive) | 5.81 µM (inactive) | 2.46 µM (inactive) | 2.47 µM (inactive) | 2.9 µM (inactive) | 3.42 µM (inactive) | 2.54 µM (inactive) | 10.4 µM (inactive) | 2.39 | 1.91 µM (inactive) | – | 3.01 µM (inactive) | – | – | 3.51 µM (inactive) | 3.88 µM (inactive) | 3.68 µM (inactive) | 7.52 µM (inactive) | 2.79 µM (inactive) | 2.37 µM (inactive)
9 | CCOP(=O)(OCC)C(c1ccc(F)cc1)N(C(=O)NC(F)(F)F)c1cccc(C(F)(F)F)c1 (centres undefined) | > 100 µM (inactive) | > 100 µM (inactive) | > 100 µM (inactive) | > 100 µM (inactive) | > 100 µM (inactive) | > 100 µM (inactive) | 33.2 µM (inactive) | 46.9 µM (inactive) | > 100 | 67.8 µM (inactive) | – | > 100 µM (inactive) | – | – | 77.3 µM (inactive) | > 100 µM (inactive) | 83.9 µM (inactive) | > 100 µM (inactive) | 82.8 µM (inactive) | > 100 µM (inactive)
10 | [N-]=[N+]=Nc1ccccc1C(=O)N1C(=O)c2ccccc2C(=O)N(C(=O)c2ccccc2N=[N+]=[N-])c2ccccc21 | 97.3 µM (inactive) | > 100 µM (inactive) | > 100 µM (inactive) | 86.5 µM (inactive) | 43.7 µM (inactive) | 37.7 µM (inactive) | 23.1 µM (inactive) | 21.4 µM (inactive) | 54.8 | 30.5 µM (inactive) | – | 40 µM (inactive) | – | – | 60.4 µM (inactive) | 43.5 µM (inactive) | 23.1 µM (inactive) | 55.2 µM (inactive) | 40.8 µM (inactive) | 52.8 µM (inactive)
11 | CC(C)(C)C1CCC2c3c([nH]c4ccccc34)C3C(=O)N(c4ccccc4)C(=O)C3C2C1 (centres undefined) | 4.84 µM (inactive) | 4.97 µM (inactive) | 14.9 µM (inactive) | 12 µM (inactive) | 8.97 µM (inactive) | 4.01 µM (inactive) | – | 2.85 µM (inactive) | 22.8 | – | 7.66 µM (inactive) | 3.1 µM (inactive) | 6.15 µM (inactive) | 3.34 µM (inactive) | 6.59 µM (inactive) | – | – | – | – | –
12 | CN(C)CC1CCCC(CN(C)C)C1OC(=O)c1ccccc1 (centres undefined) | > 100 µM (inactive) | > 100 µM (inactive) | > 100 µM (inactive) | > 100 µM (inactive) | > 100 µM (inactive) | > 100 µM (inactive) | > 100 µM (inactive) | > 100 µM (inactive) | > 100 | > 100 µM (inactive) | > 100 µM (inactive) | > 100 µM (inactive) | – | > 100 µM (inactive) | – | – | – | – | – | –
13 | CC(=O)O/N=C(Cl)/C(Cl)=N/OC(C)=O | > 100 µM (inactive) | > 100 µM (inactive) | > 100 µM (inactive) | > 100 µM (inactive) | > 100 µM (inactive) | – | > 100 µM (inactive) | > 100 µM (inactive) | > 100 | > 100 µM (inactive) | – | > 100 µM (inactive) | > 100 µM (inactive) | > 100 µM (inactive) | > 100 µM (inactive) | – | – | – | – | –
14 | [N-]=[N+]=CC(=O)OC1Cc2ccccc2C1 | > 100 µM (inactive) | > 100 µM (inactive) | > 100 µM (inactive) | > 100 µM (inactive) | > 100 µM (inactive) | > 100 µM (inactive) | 69.7 µM (inactive) | 50.4 µM (inactive) | > 100 | > 71 µM (inactive) | – | > 100 µM (inactive) | – | – | > 100 µM (inactive) | > 100 µM (inactive) | > 100 µM (inactive) | > 100 µM (inactive) | > 100 µM (inactive) | > 100 µM (inactive)
15 | CC1=NN(C(=O)c2ccccc2O)C(=O)/C1=C/c1ccco1 | 2.59 µM (inactive) | 14.6 µM (inactive) | 3.06 µM (inactive) | 1.53 µM (inactive) | 0.818 µM (active) | 0.65 µM (active) | 7.03 µM (inactive) | 3.02 µM (inactive) | 2.22 | 1.74 µM (inactive) | 1.88 µM (inactive) | 6.89 µM (inactive) | 0.604 µM (active) | – | 7.55 µM (inactive) | 0.581 µM (active) | > 100 µM (inactive) | 12.6 µM (inactive) | 4.44 µM (inactive) | 15.1 µM (inactive)
16 | COc1cc(OC)c2c(=O)cc(-c3ccc(OC)c(OC)c3OC)oc2c1 | – | > 100 µM (inactive) | > 100 µM (inactive) | > 100 µM (inactive) | 31.9 µM (inactive) | > 100 µM (inactive) | 37 µM (inactive) | 6.95 µM (inactive) | > 100 | 38.9 µM (inactive) | > 100 µM (inactive) | – | > 100 µM (inactive) | – | > 100 µM (inactive) | – | – | – | – | –
17 | CC[C@H](C)[C@@H]1OC(=O)CCNC(=O)[C@@H](C)NC(=O)C(C)(C)C(=O)[C@H](C)NC(=O)[C@H](Cc2ccc(OC)cc2)N(C)C(=O)[C@H](C(C)C)N(C)C(=O)CNC(=O)[C@H](CC(C)C)N(C)C(=O)CNC1=O (cyclo(G[NMeL]G[NMeV][NMeY](Me)[X4][dA][βAla][Hmpa(2S,3S)])) | 3.58 µM (inactive) | 0.15 µM (active) | 3.24 µM (inactive) | 0.262 µM (active) | 0.252 µM (active) | 0.621 µM (active) | 0.665 µM (active) | 0.348 µM (active) | 1.63 | 0.0295 µM (active) | – | 0.0855 µM (active) | – | – | 0.111 µM (active) | 0.953 µM (active) | 2.19 µM (inactive) | 2.81 µM (inactive) | 26.4 µM (inactive) | 0.476 µM (active)
18 | C=C(Cl)[C@](Cl)(CBr)CC[C@@H](Br)C(C)(C)Cl [HALOMON] | 1.27 µM (inactive) | 1.73 µM (inactive) | 3.64 µM (inactive) | 11.4 µM (inactive) | 0.562 µM (active) | 0.791 µM (active) | 0.378 µM (active) | 0.449 µM (active) | 2.01 | 15.5 µM (inactive) | – | 0.181 µM (active) | – | – | 1.46 µM (inactive) | 1.59 µM (inactive) | 3.18 µM (inactive) | 1.29 µM (inactive) | 1.69 µM (inactive) | 1.16 µM (inactive)
